# Measurements from patent US9018395B2, “Pyrazolopyridine and pyrazolopyrimidine derivatives as melanocortin-4 receptor modulators” (Université de Montréal, priority 2011, dated 2015).
# Biological target: T1, wild-type human melanocortin 4 receptor (WT-hMC4R) (Homo sapiens, UniProt P32245)
# T1 construct: expressed in transfected cells; cDNA from UMR cDNA resource center
# Test: Cyclic AMP assay (HTRF), antagonist competition against NDP-α-MSH
# Assay type: cell-based
# Settings: HEK293T cells expressing double-tagged WT-hMC4R; cAMP accumulation; 1 hour compound then 4 nM NDP-α-MSH 30 min
# Description: Intracellular cyclic 3′-5′ adenosine monophosphate (cAMP) accumulation was measured using a competitive immunoassay based on HTRF (Homogeneous Time-Resolved Fluorescence) technology (cAMP dynamic-2, Cis-Bio).
# HEK293T stable cell line expressing double-tagged WT-hMC4R construct were collected and washed in cAMP buffer (1XD-PBS pH 7.4, 0.1% glucose). 40,000 cells/well were then dispensed in 96-well plates in cAMP buffer [1XD-PBS, 1% BSA, 0.1% Glucose, 0.75 mM 3-isobutyl-1methyl-xanthine (IBMX, Sigma)] and incubated either for antagonist competition assay: 1 hour at 37° C. with various concentrations of compound [0.01 nM-10 μM] followed by 30 min incubation at 37° C. with 4 nM of NDP-α-MSH (Sigma) or for agonist assay: 1 hour at 37° C. with various concentrations of compound [0.01 nM-10 μM]. 10,000 cells were transferred in 384-well plates, lysed and incubated with cAMP labeled with the dye d2 and anti-cAMP M-Antibody labeled with Cryptate following the manufacturer's protocol.
# Reading of HTRF signal was performed on Artemis TR-FRET plate reader (Cosmo Bio).
# All curve fitting was conducted using non-linear regression analyses from PRISM (version 4.0c, GraphPad Inc.) and the determination of Rmax and EC50 or IC50 parameters were obtained from sigmoidal dose-response phase (variable slope) equation.
# A cDNA encoding a wild-type human MC4R with a 3 tandem copies of Hemaglutinine (HA) epitote sequence from UMR cDNA resource center was modified using known techniques in the art (e.g., PCR, cloning) to fused in frame at the C-terminal a venus-Yellow Fluorescent Protein (YFP) cDNA.
# The resultant cDNA was then subcloned in eukaryotic expression vector, e.g. pcDNA 3.1(+) (Invitrogen).
# The double tagged WT-hMC4R was transfected in HEK293T cells with lipofectamine (Invitrogen) following the manufacturer's instructions and permanently transfected clonal cell lines were selected by resistance to the neomycin analog G418.
# HEK293T stable cell line expressing wild-type human melanocortin 4 receptor (WT-hMC4R) containing an N-terminal 3xHA epitope tag and an intracellular C-terminal venus-yellow fluorescent protein (v-YFP) were maintained at 37° C. in humidified air containing 5% CO2 in Dulbecoo's modified Eagle's medium (DMEM) supplemented with 10% fetal bovine serum (FBS), 100 U/ml penicillin/streptomycin (DMEM complete/10% FBS). Cells were generally at 70%-80% confluence on the day of assay.
# T1 sequence (P32245 whole entry): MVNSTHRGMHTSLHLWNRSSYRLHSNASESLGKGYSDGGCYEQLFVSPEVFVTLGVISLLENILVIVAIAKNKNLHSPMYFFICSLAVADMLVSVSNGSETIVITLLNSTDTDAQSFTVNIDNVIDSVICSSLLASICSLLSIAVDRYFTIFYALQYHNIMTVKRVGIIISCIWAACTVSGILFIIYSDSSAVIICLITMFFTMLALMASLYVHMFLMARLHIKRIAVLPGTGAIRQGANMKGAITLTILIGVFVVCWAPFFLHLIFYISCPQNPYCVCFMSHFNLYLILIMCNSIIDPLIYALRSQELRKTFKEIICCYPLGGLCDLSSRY
row,Compound,IC50 [µM]
1,CCOc1ccc(-c2nn3ccc(C(=O)N(CCC(C)C)CCC(C)C)cc3c2/C=C/CN2CCCCC2)cc1 [Example 20],1 to 5
2,COc1ccc(NC(=O)c2nn3ccc(C(=O)N(CCC(C)C)CCC(C)C)cc3c2/C=C/CN2CCCCC2)cc1 [Example 117],1 to 5
3,CCCCN(CCCC)C(=O)c1ccn2nc(-c3ccccc3)c(/C=C/CN3CCCCC3)c2c1 [Example 57],1 to 5
4,CCCCN(CCCC)C(=O)c1ccn2nc(-c3ccc(C(C)(C)C)cc3)c(CCCN3CCCC3)c2c1 [Example 9],5 to 15
5,COc1ccc(-c2nn3ccc(C(=O)N(CCC(C)C)CCC(C)C)nc3c2/C=C/CN2CCCC2)cc1 [Example 99],1 to 5
6,CCCCN(CCC)C(=O)c1ccn2nc(-c3ccc(OC)cc3)c(/C=C/CN3CCCCC3)c2c1 [Example 25],1 to 5
7,COc1ccc(-c2nn3ccc(C(=O)N(CCC(C)C)CCC(C)C)cc3c2CCCN2CCCCCC2)cc1 [Example 111],1 to 5
8,COc1ccccc1-c1nn2ccc(C(=O)N(CCC(C)C)CCC(C)C)cc2c1CCCN1CCCCC1 [Example 151],1 to 5
9,CC(C)CCN(CCC(C)C)C(=O)c1ccn2nc(-c3ccc(Br)cc3)c(/C=C/CN3CCOCC3)c2c1 [Example 93],5 to 15
10,CC(C)CCN(CCC(C)C)C(=O)c1ccn2nc(-c3ccc(-c4noc(C(F)(F)F)n4)cc3)c(CCCN3CCCCC3)c2c1 [Example 136],1 to 5
11,COc1ccc(-c2nn3ccc(C(=O)N(CCC(C)C)CCC(C)C)cc3c2CCCN(C)C)cc1 [Example 18],5 to 15
12,CCCCCN(CCCCC)C(=O)c1ccn2nc(-c3ccc(C)cc3)c(/C=C/CN3CCCCC3)c2c1 [Example 65],1 to 5
13,CC(C)CCN(CCC(C)C)C(=O)c1ccn2nc(-c3ccc(C(=O)O)cc3)c(/C=C/CN3CCCCC3)c2c1 [Example 24],1 to 5
14,COc1ccc(-c2nn3ccc(N(CCC(C)C)CCC(C)C)cc3c2CCCN2CCCCC2)cc1 [Example 131],5 to 15
15,COc1ccc(Cl)cc1-c1nn2ccc(C(=O)N(CCC(C)C)CCC(C)C)cc2c1-c1ccc(CN2CCCCC2)cc1 [Example 137],1 to 5
16,CCOc1ccc(-c2nn3ccc(C(=O)N(CCC(C)C)CCC(C)C)cc3c2CCCN2CCOCC2)cc1 [Example 166],1 to 5
17,CCOc1ccc(-c2nn3ccc(C(=O)N(CCC(C)C)CCC(C)C)cc3c2/C=C/CN2CCC(F)(F)CC2)cc1 [Example 79],5 to 15

row,Compound,IC50 [µM]
1,CC(C)CCN(CCC(C)C)C(=O)c1ccn2nc(-c3cccc(Br)c3)c(/C=C/CN3CCCCC3)c2c1 [Example 28],1 to 5
2,CC(C)CCN(CCC(C)C)C(=O)c1ccn2nc(-c3ccc(C(C)O)cc3)c(CCCN3CCOCC3)c2c1 (centres unmarked) [Example 118],1 to 5
3,CC(C)CCN(CCC(C)C)C(=O)c1ccn2nc(-c3cccc(C(=O)O)c3)c(CCCN3CCCCC3)c2c1 [Example 74],1 to 5
4,COc1ccc(-c2nn3ccc(C(=O)N(CCC4CC4)CCC4CC4)cc3c2/C=C/CN2CCCCC2)cc1 [Example 108],1 to 5
5,CC(C)CCN(CCC(C)C)C(=O)c1ccn2nc(-c3ccc(C(C)(C)C)cc3)c(/C=C/CN3CCCC3)c2c1 [Example 6],1 to 5
6,"N,N-Diisopentyl-2-(4-methoxyphenyl)-3-(3-(piperidin-1-yl)propyl)pyrazolo[1,5-a]pyrimidine-5-carboxamide [Example 89]",1 to 5
7,COc1ccc(-c2nn3ccc(C(=O)N(CCC(C)C)CCC(C)C)cc3c2CCCN2[C@H](C)CCC[C@@H]2C)cc1 [Example 160],1 to 5
8,CC(=O)c1ccccc1-c1nn2ccc(C(=O)N(CCC(C)C)CCC(C)C)cc2c1/C=C/CN1CCCCC1 [Example 35],1 to 5
9,COc1ccc(Cl)cc1-c1nn2ccc(C(=O)N(CCC(C)C)CCC(C)C)cc2c1CCCN1CCCCC1 [Example 114],1 to 5
10,CCOc1ccc(-c2nn3ccc(C(=O)N(CCC(C)C)CCC(C)C)cc3c2CCCN2CCC(C(F)(F)F)CC2)cc1 [Example 82],5 to 15
11,COc1ccc(-c2nn3ccc(C(=O)N(CCC(C)C)CCC(C)C)cc3c2/C=C/CN2CCCC2)cc1 [Example 23],1 to 5
12,"CC(=O)c1ccc(-c2nn3ccc(C(=O)N(CCC(C)C)CCC(C)C)cc3c2/C=C/CN2CCCCC2)cc1 [Example 42, (E)-2-(4-Acetylphenyl)-N,N-diisopentyl-3-(3-(piperidin-1-yl)prop-1-en-1-yl)pyrazolo[1,5-a]pyridine-5-carboxamide]",0.5 to 1
13,COc1ccc(-c2nn3ccc(C(=O)N(CCC(C)C)CCC(C)C)cc3c2CCCN2CCCC(F)C2)cc1 (centres unmarked) [Example 161],1 to 5
14,CC(C)CCN(CCC(C)C)C(=O)c1ccn2nc(-c3ccc(C(C)(C)C)cc3)c(CCCN3CCCC3)c2c1 [Example 8],1 to 5
15,CCCN(CC1CC1)C(=O)c1ccn2nc(-c3ccc(OC)cc3)c(CCCN3CCCCC3)c2c1 [Example 27],5 to 15
16,"CCCCN(CCCC)C(=O)c1ccn2nc(-c3ccc(OC)cc3)c(/C=C/CN3CCCCC3)c2c1 [Example 12, (E)-N,N-Dibutyl-2-(4-methoxyphenyl)-3-(3-(piperidin-1-yl)prop-1-enyl)pyrazolo[1,5-a]pyridine-5-carboxamide]",1 to 5

# The next lines start with the values.
row,IC50 [µM],Compound
1,0.5 to 1,CC(=O)c1cccc(-c2nn3ccc(C(=O)N(CCC(C)C)CCC(C)C)cc3c2/C=C/CN2CCCCC2)c1 [Example 29]
2,< 0.5,COc1ccc(-c2nn3ccc(C(=O)N(CCC(C)C)CCC(C)C)cc3c2CCCN2CCOCC2)cc1 [Example 124]
3,< 0.5,COc1cccc(-c2nn3ccc(C(=O)N(CCC(C)C)CCC(C)C)cc3c2CCCN2CCCCC2)c1 [Example 15]
4,< 0.5,CC(C)CCN(CCC(C)C)C(=N)c1ccn2nc(-c3ccc(C(N)=O)cc3)c(CCCN3CCCCC3)c2c1 [Example 126]
5,< 0.5,CC(C)CCN(CCC(C)C)C(=O)c1ccn2nc(-c3ccc(C(N)=O)cc3)c(CCCN3CCCCC3)c2c1 [Example 95]
6,< 0.5,COc1cc(-c2nn3ccc(C(=O)N(CCC(C)C)CCC(C)C)cc3c2/C=C/CN2CCCCC2)cc(OC)c1OC [Example 70]
7,0.5 to 1,CC(C)CCN(CCC(C)C)C(=O)c1ccn2nc(-c3cccc(-c4nnn[nH]4)c3)c(CCCN3CCCCC3)c2c1 [Example 94]
8,< 0.5,CC(=O)O/N=C(\N)c1ccc(-c2nn3ccc(C(=O)N(CCC(C)C)CCC(C)C)cc3c2CCCN2CCCCC2)cc1 [Example 107]
9,0.5 to 1,COc1cccc(-c2nn3ccc(C(=O)N(CCC(C)C)CCC(C)C)cc3c2/C=C/CN2CCCCC2)c1 [Example 13]
10,0.5 to 1,CCCCN(CCCC)C(=O)c1ccn2nc(-c3cc(OC)cc(OC)c3)c(/C=C/CN3CCCCC3)c2c1 [Example 85]
11,< 0.5,CC(C)CCN(CCC(C)C)C(=O)c1ccn2nc(-c3ccc(O)cc3)c(CCCN3CCCCC3)c2c1 [Example 78]
12,0.5 to 1,"CC(C)CCN(CCC(C)C)C(=O)c1ccn2nc(-c3cccc(Cl)c3)c(/C=C/CN3CCCCC3)c2c1 [Example 72, (E)-2-(3-chlorophenyl)-N,N-diisopentyl-3-(3-(piperidin-1-yl)prop-1-en-1-yl)pyrazolo[1,5-a]pyridine-5-carboxamide]"
13,0.5 to 1,CCCCN(CCCC)C(=O)c1ccn2nc(-c3cc(OC)c(OC)c(OC)c3)c(CCCN3CCCCC3)c2c1 [Example 66]
14,< 0.5,COc1ccc(Cl)cc1-c1nn2ccc(C(=O)N(CCC(C)C)CCC(C)C)cc2c1C#CCN1CCCCC1 [Example 101]
15,< 0.5,CC(C)CCN(CCC(C)C)C(=O)c1ccn2nc(-c3cccc(C(N)=O)c3)c(/C=C/CN3CCCCC3)c2c1 [Example 77]
16,< 0.5,"COc1ccc(Nc2nn3ccc(C(=O)N(CCC(C)C)CCC(C)C)cc3c2CCCN2CCCCC2)cc1 [Example 142, N,N-diisopentyl-2-((4-methoxyphenyl)amino)-3-(3-(piperidin-1-yl)propyl)pyrazolo[1,5-a]pyridine-5-carboxamide]"
17,< 0.5,COc1cc(OC)cc(-c2nn3ccc(C(=O)N(CCC(C)C)CCC(C)C)cc3c2CCCN2CCCCC2)c1 [Example 86]
18,< 0.5,"CC(C)CCN(CCC(C)C)C(=O)c1ccn2nc(-c3ccc(C(C)O)cc3)c(CCCN3CCCCC3)c2c1 (centres unmarked) [Example 46, 2-(4-(1-Hydroxyethyl)phenyl)-N,N-diisopentyl-3-(3-(piperidin-1-yl)propyl)pyrazolo[1,5-a]pyridine-5-carboxamide]"
19,< 0.5,CC(C)CCN(CCC(C)C)C(=O)c1ccn2nc(-c3ccc(F)cc3)c(CCCN3CCCCC3)c2c1 [Example 49]
20,< 0.5,COc1ccc(-c2nn3ccc(C(=O)N(CCC(C)C)CCC(C)C)cc3c2CCCN2CCCCC2)cc1OC [Example 16]
